Results reported in patent publication US11122997B2, “Modulating the aryl hydrocarbon receptor system to treat major depressive disorder” (Mayo Foundation for Medical Education and Research, priority 2015, dated 2021).

What was measured:
[1] = system: iPSC-derived neurons; assay: Ketamine treatment of iPSC-derived neuron culture, mRNA and protein levels; type: cell-based, human
Description: Human induced pluripotent stem cells (iPSCs) were purchased from Axol, UK and were differentiated as per the company's protocol. The cells were differentiated for 30 days before being used for lentivirus-mediated knockdown experiments.
(§1) Lysates obtained from cells subjected to knockdown or overexpression were used to isolate total RNA (Zymo Research). The purity of the extracted RNA samples was assessed using a Nanodrop instrument (Thermo Scientific). All samples had acceptable A260/A280 ratios. AHR, ARNT, AHRR, IDO1, and TDO2 mRNAs levels were quantified by reverse transcription quantitative PCR (RT-qPCR) using a one step RNA-to-Ct™ kit (Life Technologies). The kit contains reagents for converting RNA to cDNA, followed by primer-specific amplification of the desired mRNA (in this case, AHR, ARNT, AHRR, IDO1, and TDO2). GAPDH was used as a reference gene. The quantification of these mRNAs was carried out by employing the ΔΔCt method as described elsewhere (Ingle et al., Cancer Discovery 3(7):812-825, 2013).
(§2) Cell lysates obtained after transfections and from LCLs were subjected to Western immunoblotting to detect levels of AHR, AHRR, ARNT, TDO2, and IDO1 proteins. Briefly, equal amounts of protein (as determined by the BCA protein assay) were loaded onto premade Criterion gels (Bio-Rad) and run for 1 hour at 180V. Proteins from the gels were electrophoretically transferred onto PVDF membranes and blocked at room temperature for 1 hour with 5% non-fat milk dissolved in TBST. The membranes were incubated with primary antibodies (anti-AHR from GeneTex, Inc. (Irvine, Calif.); anti-ARNT and anti AHRR from Sigma (St. Louis, Mo.); TDO2 from OriGene Technologies, Inc.; and IDO1) dissolved in 5% non-fat milk containing TBST at 4° C. overnight with gentle rocking. Following incubation, the membranes were vigorously washed with TB ST several times and then incubated with appropriate secondary antibodies, dissolved in 5% non-fat milk containing TBST at room temperature for 1 hour. Several TBST washes were carried out before ECL reagents were applied to the membranes and radiographic images were captured on X-ray films (GE). B-actin protein also was detected and served as a loading control. Quantification of Western immunoblots was carried out using NIH Image-J (Abramoff et al., Biophotonics Intl 11(7):36-42, 2004), and plotted in GraphPad-Prism software.

[2] = system: U251 glioma cells; assay: Ketamine treatment of U251 glioma cell culture, mRNA (RT-qPCR) and protein (Western blot) levels; type: cell-based, human; settings: U251 glia
Description: as §1, §2

[3] = cited from earlier work
[4] = system: glioblastoma cells; assay: Secreted kynurenine in conditioned media of glioblastoma cells (HPLC); settings: ketamine vs vehicle (FIG. 10)
[5] = other NMDA receptor antagonists; cited from earlier work
[6] = ketamine vs vehicle (FIGS. 8A, 8B)

Row | Compound | mRNA level of AHRR ([1]; ketamine vs vehicle (FIG. 8C)) | mRNA level of IDOL ([1]; ketamine vs vehicle (FIG. 8C)) | mRNA level of TDO2 ([1]; ketamine vs vehicle (FIG. 8C)) | protein level of AHRR ([1]; ketamine vs vehicle (FIG. 9B)) | protein level of IDOL ([1]; ketamine vs vehicle (FIG. 9B)) | protein level of TDO2 ([1]; ketamine vs vehicle (FIG. 9B)) | protein level of IDOL ([2]; ketamine for 24 hours vs vehicle (FIG. 9A)) | mRNA level of AHRR [2, 6] | mRNA level of IDOL [2, 6] | mRNA level of TDO2 [2, 6] | effect on mood ([3]; severely depressed patients) | duration of effects ([3]; single infusion) | secreted KYN in cell culture conditioned media [4] | ketamine-like antidepressant effects [5]
1 | CNC1(c2ccccc2Cl)CCCCC1=O (stereo not drawn) [Ketamine] | Decreased levels | decreased levels | decreased levels | Decreased levels | decreased levels | decreased levels | decreased levels | Decreased levels | decreased levels | decreased levels | rapid improvement in mood | last for weeks | decreased levels | –
2 | C[C@]12N[C@H](Cc3ccccc31)c1ccccc12 [MK801] | – | – | – | – | – | – | – | – | – | – | – | – | – | fail to demonstrate ketamine-like antidepressant effects
3 | CC12CC3CC(C)(C1)CC(N)(C3)C2 [memantine] | – | – | – | – | – | – | – | – | – | – | – | – | – | fail to demonstrate ketamine-like antidepressant effects
